Data on 30 molecules can be found in ChEMBL document CHEMBL3351410, “The discovery of avanafil for the treatment of erectile dysfunction: a novel pyrimidine-5-carboxamide derivative as a potent and highly selective phosphodiesterase 5 inhibitor” (Bioorg Med Chem Lett, 2014).

For assay [1], the target named is cGMP-specific 3',5'-cyclic phosphodiesterase (Canis lupus familiaris, UniProt O77746). In words: Inhibition of dog lungs PDE5 using [3H]cGMP as substrate after 30 mins by scintillation counting analysis.
The subject of the next assay is Corpus cavernosum. The experiment in a line: Induction of relaxant effect in rabbit corpus cavernosum after 30 mins. The assay is classed as functional, Oryctolagus cuniculus.
Assay [2] in a line: Selectivity for dog lungs PDE5 over light-activated bovine retina PDE6.
The species entered for assay [3] is Homo sapiens. In words: Selectivity for PDE5 (unknown origin) over PDE6 (unknown origin).
The species named for assay [4] is Homo sapiens. The experiment in a line: Selectivity for PDE5 (unknown origin) over PDE1 (unknown origin).
The species named for assay [5] is Homo sapiens. The experiment in a line: Selectivity for PDE5 (unknown origin) over PDE2 (unknown origin).
Assay [6] is filed under the species Homo sapiens. The experiment in a line: Selectivity for PDE5 (unknown origin) over PDE3 (unknown origin).
Assay [7] is filed under the species Homo sapiens. The experiment in a line: Selectivity for PDE5 (unknown origin) over PDE4 (unknown origin).
For assay [8], the species on record is Homo sapiens. In words: Selectivity for PDE5 (unknown origin) over PDE7 (unknown origin).
The species named for assay [9] is Homo sapiens. The experiment in a line: Selectivity for PDE5 (unknown origin) over PDE8 (unknown origin).
The species named for assay [10] is Homo sapiens. The experiment in a line: Selectivity for PDE5 (unknown origin) over PDE9 (unknown origin).
Assay [11] is filed under the species Homo sapiens. In words: Selectivity for PDE5 (unknown origin) over PDE11 (unknown origin).
Assay [12] is filed under the species Homo sapiens. The experiment in a line: Selectivity for PDE5 (unknown origin) over PDE10 (unknown origin).

The IC50 is the concentration at which inhibition is half-maximal. In assay [1], `COc1ccc(CNc2nc(OCc3ccccn3)ncc2C(=O)N(C)Cc2ccccn2)cc1Cl` yielded an IC50 of 85 nM.
Usually EC30 stands for the point of the concentration-response curve where the effect stands at 30%. A lower EC30 goes with greater potency. In turn, `COc1ccc(CNc2nc(N3CCC[C@H]3CO)ncc2C(=O)NCc2ccccn2)cc1Cl` registered an IC50 in assay [1] of 1.2 nM. This molecule also showed an EC30 in the assay on Corpus cavernosum of 22 nM. Moreover, in assay [2], the Selectivity ratio came to 4300.
In [1], `COc1ccc(CNc2nc(OCc3ccccn3)ncc2C(=O)NCCCO)cc1Cl` came in with an IC50 of 13 nM. The Selectivity ratio in assay [2] came to 420.
In the case of `COc1ccc(CNc2nc(N3CCC[C@H]3CO)ncc2C(=O)N[C@H]2CC[C@H](OC)CC2)cc1Cl`, in assay [1], inhibition was half-maximal at 0.9 nM (IC50). In the assay on Corpus cavernosum, the EC30 worked out at 6.8 nM. Besides, in [2], the Selectivity ratio is 7700.
`COc1ccc(CNc2nc(OCc3ccccn3)ncc2C(=O)NCCN2CCOCC2)cc1Cl` gave an IC50 in [1] of 5.6 nM. In assay [2], the Selectivity ratio was found to be 630.
In turn, `COc1ccc(CN=c2[nH]c(N3CCC[C@H]3CO)ncc2C(=O)NCc2ncccn2)cc1Cl` [AVANAFIL] gave an IC50 in assay [1] of 5.2 nM.
Molecule `COc1ccc(CNc2nc(N3CCC[C@H]3CO)ncc2C(=O)N[C@H]2CC[C@H](O)CC2)cc1Cl` gave an IC50 in [1] of 1.8 nM. In the assay with Corpus cavernosum, the EC30 is >100 nM. Besides, the Selectivity ratio in assay [2] was 5600.
Consider `COc1ccc(CNc2nc(OCc3ccccn3)ncc2C(=O)N[C@H]2CC[C@H](O)CC2)cc1Cl`, for which, in assay [1], the IC50 stood at 3.5 nM. Further, the Selectivity ratio in [2] is 510.
As to `COc1ccc(CNc2nc(OCc3ccccn3)ncc2C(=O)NCc2ccccn2)cc1Cl`, in assay [1], inhibition was half-maximal at 2.7 nM (IC50). In assay [2], the Selectivity ratio is 480.
In [1], `COc1ccc(CNc2nc(N3CCCC(CO)C3)ncc2C(=O)NCc2ncccn2)cc1Cl` (configuration not stated) had an IC50 of 63 nM.
With `CCCc1nn(C)c2c(=O)[nH]c(-c3cc(S(=O)(=O)N4CCN(C)CC4)ccc3OCC)nc12`, in the assay listed under Homo sapiens [3], the Selectivity ratio is 16.
On to `COc1ccc(CNc2nc(N3CCC(O)CC3)ncc2C(=O)NCc2ccccn2)cc1Cl`, for which the IC50 in [1] stood at 59 nM.
`COc1ccc(CNc2nc(N3CCC[C@H]3CO)ncc2C(=O)NCc2ncccn2)cc1Cl` [AVANAFIL] came in with an EC30 with Corpus cavernosum of 2.1 nM. The Selectivity ratio in the assay listed under Homo sapiens [3] is 121; in the assay listed under Homo sapiens [4], > 1000; in the assay listed under Homo sapiens [5], > 1000; in the assay filed under Homo sapiens [6], > 1000; in the assay filed under Homo sapiens [7] it was > 1000; in the assay listed under Homo sapiens [8] it was > 1000. For the same molecule, the Selectivity ratio in the assay filed under Homo sapiens [9] is > 1000; in the assay filed under Homo sapiens [10] it was > 1000; in the assay listed under Homo sapiens [11] it was > 19200; in the assay listed under Homo sapiens [12] it was > 1000; in assay [2], 4000.
`COc1ccc(CNc2nc(N3CCC(CO)C3)ncc2C(=O)NCc2ncccn2)cc1Cl` (configuration not stated) gave an IC50 in assay [1] of 25 nM.
In assay [1], `COc1ccc(CNc2nc(OCc3ccccn3)ncc2C(=O)OCc2ccccn2)cc1Cl` showed an IC50 of 2.1 nM. For the same molecule, in assay [2], the Selectivity ratio worked out at 1000.
Regarding `CN1CC(=O)N2[C@H](c3ccc4c(c3)OCO4)c3[nH]c4ccccc4c3C[C@@H]2C1=O`, the Selectivity ratio in the assay filed under Homo sapiens [3] is 550; in the assay filed under Homo sapiens [11], 25.
Take `COc1ccc(CNc2nc(OCc3ccccn3)ncc2C(=O)OCc2ncccn2)cc1Cl`: the IC50 in assay [1] was found to be 4.2 nM. In assay [2], the Selectivity ratio was found to be 640.
On to `COc1ccc(CNc2nc(N(C)CCO)ncc2C(=O)NCc2ccccn2)cc1Cl`, for which inhibition in assay [1] was half-maximal at 32 nM (IC50).
In [1], `COc1ccc(CNc2nc(N3CCC[C@H]3CO)ncc2C(=O)NCCCO)cc1Cl` displayed an IC50 of 6.6 nM. Moreover, the EC30 in the assay with Corpus cavernosum was determined as 4.9 nM. Besides, in assay [2], the Selectivity ratio was 1500.
For the molecule `COc1ccc(CNc2nc(OCc3ccccn3)ncc2C(=O)NCc2ncccn2)cc1Cl`, it took 12 nM to reach half-maximal inhibition in assay [1] (IC50). The Selectivity ratio in assay [2] was determined as 720.
The molecule `CCOC(=O)c1cnc(OCc2ccccn2)nc1NCc1ccc(OC)c(Cl)c1` came in with an IC50 in [1] of 5.5 nM. In the assay with Corpus cavernosum, the EC30 is 37 nM.
Turning to `COCCCNC(=O)c1cnc(OCc2ccccn2)nc1NCc1ccc(OC)c(Cl)c1`, the IC50 in [1] stood at 15 nM. In assay [2], the Selectivity ratio amounted to 240.
As to `COc1ccc(CNc2nc(N3CCOC[C@H]3CO)ncc2C(=O)NCc2ncccn2)cc1Cl`, the IC50 in assay [1] is > 100 nM.
The molecule `COc1ccc(CNc2nc(OCc3ccccn3)ncc2C(=O)NCCCCO)cc1Cl` showed an IC50 in assay [1] of 12 nM. In addition, the Selectivity ratio in assay [2] is 480.
In turn, `COc1ccc(CNc2nc(N3Cc4ccccc4C[C@H]3CO)ncc2C(=O)NCc2ccccn2)cc1Cl` registered an IC50 in assay [1] of 6.5 nM.
`COc1ccc(CNc2nc(N3CCC[C@H]3CO)ncc2C(=O)NCC2CN(C)CCO2)cc1Cl` (some centres not stated) gave an IC50 in assay [1] of 6.1 nM. This molecule also yielded an EC30 with Corpus cavernosum of 2.7 nM. Also, the Selectivity ratio in assay [2] stood at 2000.
As for `COc1ccc(CNc2nc(N3CCC[C@@H]3CO)ncc2C(=O)NCc2ncccn2)cc1Cl`, 36 nM corresponded to half-maximal inhibition in [1] (IC50).
On the same count and under the same terms, with `COc1ccc(CNc2nc(N3CCCCC3CO)ncc2C(=O)NCc2ccccn2)cc1Cl` (configuration not stated) the figure was 54 nM.
`CCCc1nc(C)c2c(=O)nc(-c3cc(S(=O)(=O)N4CCN(CC)CC4)ccc3OCC)[nH]n12`: the Selectivity ratio in the assay listed under Homo sapiens [3] worked out at 21.
As for `COc1ccc(CNc2nc(N3CCOC(CO)C3)ncc2C(=O)NCc2ccccn2)cc1Cl` (configuration not stated), in assay [1], the IC50 came to 32 nM.
